# Results taken from patent publication US8110217B2, “Sphingomyelin liposomes for the treatment of hyperactive bladder disorders” (priority 2001, dated 2012).
# Values joined by “and” are separate entries in the source; they are usually repeats but may differ in a detail not shown here. Equal values may be shown once. “Also recorded” adds a separate entry of the source.
# Tested on: acute hyperactive bladder
# Test: Continuous CMG, acute hyperactive bladder model with intravesical PS and KCl (Examples 7-8)
# Format: in vivo, female Sprague-Dawley rats
# Method: An animal model for acute hyperactive bladder in rats was developed using intravesical infusion of PS, an agent used to break down urothelial barrier function and physiological concentrations of KCl.
# Continuous CMGs were performed in urethane-anesthetized female rats. The bladder was filled (0.04 ml/min) with normal saline followed by intravesical infusion for a 60 minute period with a test solution comprising either KCl (100 or 500 mM) or PS (10 or 30 mg/ml). Following this, 10 mg/ml PS treated animals were infused intravesically with 100, 300 or 500 mM KCl. Some animals were pretreated with capsaicin ([…], sc) four days before the experiments.
# Animal Preparation. The study was performed on 40 female Sprague-Dawley rats weighing 250-300 gm. Animals were anesthetized with 1.2 gm/kg urethane injected subcutaneously. Body temperature was maintained in the physiological range using a heating lamp.
# Cystometrogram (CMG). PE-50 tubing (Clay-Adams, Parsippany, N.J.) was inserted into the bladder through the urethra and connected via a three-way stopcock to a pressure transducer and to a syringe pump. This was used for recording intravesical pressure and for infusing solutions into the bladder. A control CMG was performed by slowly filling the bladder with saline (0.04 ml/min) to elicit repetitive voiding. The amplitude, PT, compliance and intercontraction interval (ICI) of reflex bladder contractions were recorded. Pressure threshold (PT) represents the pressure that induces the initial bladder contraction. PT often has been used as a parameter corresponding to afferent nerve activity for the induction of reflex bladder contractions. Measurements in each animal represented the average of 3 to 5 bladder contractions.
# After performing control CMGs with saline infusion, three intravesical infusion experiments were performed in parallel: (1) infusion of KCl (100 or 500 mM in saline) for one hour (N=4 in each group); (2) infusion of PS (Sigma Chemical Co.; 30 mg/ml in saline) for one hour (N=6); and (3) infusion of PS (10 mg/ml) for one hour, followed by 100, 300 or 500 mM KCl for one hour (N=6, in each subgroup). In four animals, capsaicin dissolved in a vehicle containing 10% ethanol, 10% TWEEN®80 and 80% physiological saline, at a concentration of 20 mg/ml was given subcutaneously in divided doses on 2 consecutive days. The doses included 25 and 50 mg/kg at a 12-hour interval on the first day and 50 mg/kg on the second day, as previously described (C. L. Cheng et al., 1993, Am. J. Physiol. 265:R132-138). All injections were performed under halothane anesthesia. Four days after the last dosage of capsaicin, the animals were anesthetized and treated with intravesical administration of PS (10 mg/ml) for 1 hour followed by KCl (500 mM) infusion.
# Suppression of Micturition Reflex. To evaluate the direct effects of potassium on detrusor muscle, micturition reflex was blocked in 4 animals by either intravenous hexamethonium injection (25 mg/kg) (N=2) or transection of bilateral pelvic nerves (N=2).
# Statistical Analysis. Statistical analyses were performed using Student's t test for paired or unpaired data, as applicable, with p<0.05 considered significant. Quantitative data are expressed in Example 8 (below) as means plus or minus standard error.
# [1] = 100 mM KCl alone, one hour, N=4
# [2] = 100 mM KCl following 10 mg/ml PS, N=6
# [3] = 300 mM KCl following 10 mg/ml PS, N=6
# [4] = 300 mM KCl following PS 10 mg/ml
# [5] = 500 mM KCl alone, one hour, N=4
# [6] = 500 mM KCl following 10 mg/ml PS, N=6
# [7] = 500 mM KCl following PS 10 mg/ml
# [8] = KCl 500 mM 1 hr after one hour PS 10 mg/ml, capsaicin pretreated animals, N=4
# [9] = KCl 500 mM 2 hr after one hour PS 10 mg/ml, capsaicin pretreated animals, N=4
# [10] = KCl 500 mM following PS 10 mg/ml, micturition reflex suppressed animals
# [11] = capsaicin pretreated animals, PS 10 mg/ml then KCl 500 mM, 2 hours of infusion
compound,measurement,setting,value
[Cl-].[K+] [KCl],Amplitude,[1],28.2 ± 0.5 cm H2O
same,Compliance,[1],0.205 ± 0.032 ml/cm H2O
same,ICI,[1],13.8 ± 2.0 min
same,PT,[1],5.9 ± 0.5 cm H2O
same,Amplitude,[2],28.2 ± 3.7 cm H2O
same,Compliance,[2],0.157 ± 0.022 ml/cm H2O
same,ICI,[2],18.8 ± 2.1 min
same,PT,[2],3.0 ± 1.3 cm H2O
same,Amplitude,[3],31.3 ± 0.7 cm H2O
same,Compliance,[3],0.066 ± 0.012 ml/cm H2O
same,ICI,[3],5.2 ± 1.7 min
same,PT,[3],3.3 ± 0.9 cm H2O
same,ICI decrease,[4],76.9%
same,compliance decrease,[4],60%
same,contraction amplitude increase,[4],23.7%
same,onset of irritation (delay),[4],20 to 30 min
same,Amplitude,[5],28.8 ± 1.2 cm H2O
same,Compliance,[5],0.237 ± 0.023 ml/cm H2O
same,ICI,[5],15.8 ± 2.4 min
same,PT,[5],8.2 ± 0.9 cm H2O
same,Amplitude,[6],29.5 ± 3.4 cm H2O
same,Compliance,[6],0.075 ± 0.009 ml/cm H2O
same,ICI,[6],3.2 ± 1.3 min
same,PT,[6],5.4 ± 1.0 cm H2O
same,ICI decrease,[7],82.9%
same,compliance decrease,[7],63.4%
same,contraction amplitude increase,[7],21.4%
same,onset of irritation (delay),[7],10 to 15 min
same,PT change,300 or 500 mM KCl following PS 10 mg/ml,not significantly altered
same,Amplitude,[8],20.3 ± 0.3 cm H2O
same,Compliance,[8],0.218 ± 0.013 ml/cm H2O
same,ICI,[8],21.3 ± 2.8 min
same,PT,[8],5.8 ± 0.5 cm H2O
same,Amplitude,[9],16.0 ± 1.7 cm H2O
same,Compliance,[9],0.100 ml/cm H2O and 0.100 ± 0.016 ml/cm H2O
same,ICI,[9],13.1 ± 2.8 min
same,PT,[9],7.6 ± 1.7 cm H2O
same,Compliance,[10],0.041±0.011 ml/cm H2O
same,compliance decrease,[10],55.9%
same,detrusor muscle / bladder compliance,[10],stimulated the detrusor muscle and decreased bladder compliance
same,irritative effects / CMG parameters,KCl 100 or 500 mM alone,not observed; also recorded: not significantly different from those during saline administration
same,ICI decrease,[11],36%
same,compliance decrease,[11],55%
same,bladder hyperactivity,high concentrations of KCl (300/500 mM) following one hour of PS 10 mg/ml,induced bladder hyperactivity (decrease ICI)
same,CMG parameters,"low concentration KCl (100 mM), one hour, following PS 10 mg/ml",did not produce significant changes in the CMG parameters; also recorded: had no effect
